Data from patent US6335030B1, “Transdermally administered dextromethorphan as antitussive agent” (Pharmacia & Upjohn AB, priority 1996, dated 2002).

What was measured:
[1] = In vitro skin permeation in Franz diffusion cells; format: in vitro ADME, pig
Source text: Quantitative determination of dextromethorphan in the receptor solution samples from the skin permeation studies in Example 3 and from the membrane permeation studies in Example 4 was done by the HPLC method described under Apparatus.
In vitro permeation of dextromethorphan from the solutions 1, 2, 3, 4, 5, 6, 7 and 8 through dermatomed pig skin was investigated in Franz diffusion Cells.
Skin pieces with a thickness of approximately 765 μm were dermatomed from full thickness pig skin and mounted in glass diffusion cells with an available diffusion area of 1.8 cm^2. Pig skin is a fully accepted model for human skin. The solutions were applied separately on the skin surfaces and the dermal sides were all exposed to 12.1 ml receptor solution consisting of a 0.05M phosphate buffer solution of pH 7.4 equilibrated to 37±1° C.
Permeation of dextromethorphan was followed by removing samples periodically and measuring the concentration by the HPLC method according to Example 2. An increase in the permeated amount of dextromethorphan is seen in the following order: Water, isopropyl myristate, propylene glycol, propylene glycol containing 5% azone, water containing 1% hydroxpropyl-b-cyclodextrine, water containing 1% b-cyclodextrine, ethanol and ethyl acetate used as solvents. The maximal observed flux of dextromethorphan is 21 μg/cm^2/h and the range is from approximately 0.5 to 21 μg/cm^2/h.

[2] = cited from earlier work
[3] = peroral, dogs; cited from earlier work
[4] = in vivo; cited from earlier work
[5] = in vivo; cited from earlier work; remark: listed apart in the source

COc1ccc2c(c1)[C@]13CCCC[C@@H]1[C@H](C2)N(C)CC3 [dextromethorphan, (+)-3-methoxy-17-methyl-9a,13a,14a-morphinan]
maximal observed flux through skin ([1]; dermatomed pig skin, solutions 1-8, receptor phosphate buffer pH 7.4, 37°C): 21 μg/cm^2/h | change of flux depending on solvent ([1]; ethanol, ethyl acetate or addition of cyclodextrines as solvent): remarkable increase in the fluxes | effect on coughing frequency and intensity compared to placebo ([2]; 40 mg perorally, tussometri): significant effect on reducing coughing frequency as well as intensity | antitussive effect upon inhalation ([2]; inhalation of 1-30 mg): has not shown any antitussive effect | absolute bioavailability [3]: 3.8% | half-life [4]: 4 to 6 h | safety [5]: safe drug | side-effects compared with codeine and noscapine [5]: fewer side-effects
